The results in this text go back to paper doi:10.1101/2024.08.25.609621 (bioRxiv, 2024).

The IC50 is the concentration needed to halve the response being measured. What is called Ki is a measure of affinity in units of concentration, obtained from inhibition or displacement.

Where two headings read alike, the source gives them in different places.

The target in assay [1] is SARS-CoV-2 NSP3 macrodomain (Mac1) (Severe acute respiratory syndrome coronavirus 2, UniProt P0DTD1). Kind of assay: biochemical. Particulars: for IC50 / Ki: dose-response. Format: binding.
The target of assay [2] is SARS-CoV-2 NSP3 macrodomain (Mac1), P43 crystal form (Severe acute respiratory syndrome coronavirus 2, UniProt P0DTD1). Format: binding.
Setting [3] is: read-out: SARS CoV-2 macrodomain HTRF assay: IC50.
The mark [4] stands for this setting: read-out: SARS CoV-2 macrodomain HTRF assay: Ki.
The mark [5] stands for this setting: from SARS CoV-2 macrodomain HTRF assay.
[6] abbreviates: ligand modeling in Mac1 crystal structure.
Where [7] appears, read: stereoisomer(s) modeled in Mac1 crystal structure.
The mark [8] stands for this setting: Single dose, concentration 200 μM, read-out: Average % competition.
Where [9] appears, read: preliminary screen, compound at 200 μM, mean of 3-4 technical replicates, read-out: % competition in HTRF assay.
The mark [10] stands for this setting: ligand modeling in Mac1 crystal soak.
The mark [11] stands for this setting: Single dose, concentration 200 μM, read-out: SARS CoV-2 macrodomain HTRF assay: Average % competition.
Setting [12] is: stereoisomer(s) of ligand modeled in Mac1 crystal structure.

Consider `Cc1c[nH]c2ncnc(NCC3(O)CCOCC3)c12` [AVI-4194, 4-(((5-methyl-7H-pyrrolo[2,3-d]pyrimidin-4-yl)amino)methyl)tetrahydro-2H-pyran-4-ol], for which the IC50 in assay [1] (setting [3]) came out at 160 µM. Also, in assay [1] (setting [4]), the inhibition constant Ki was found to be 150 µM. Moreover, the “Ligand efficiency (binding enery per heavy atom)” value in assay [1] (setting [5]) is 0.28. In addition, the “Number of isomers bound” value in assay [2] (setting [6]) was 1. In assay [2] (setting [7]), the Isomers modeled entry was “achiral”.

In the case of `OCC(CC1CCCC1)Nc1ncnc2[nH]ccc12` (centres unmarked) [AVI-3691], the inhibition at 200 µM in assay [1] (setting [8]) turned out to be 52%; in assay [1] (setting [9]), 53%. In assay [2] (crystal soak 10 mM), the “PanDDA run, TFA/DMSO background map: 1-BDC” value is listed as 0.1. The “PanDDA run, TFA/DMSO background map: Hit” value in assay [2] (crystal soak 10 mM) is listed as “TRUE”. The “Number of isomers bound” value in assay [2] (setting [10]) came to 1.

Regarding `OCC(O)C1CCCN1c1ncnc2[nH]ccc12` (centres unmarked) [AVI-3701], the inhibition at 200 µM in assay [1] (setting [11]) and in assay [1] (setting [9]) was 54% each time. In assay [2] (setting [10]), the “Number of isomers bound” value stood at 1. Besides, the “PanDDA run, TFA/DMSO background map: 1-BDC” value in assay [2] (soak concentration 10 mM) came out at 0.16. The “PanDDA run, TFA/DMSO background map: Hit” value in assay [2] (soak concentration 10 mM) is given as “TRUE”.

On to `OCC(Cc1c[nH]c2ccccc12)Nc1ncnc2[nH]ccc12` (centres unmarked) [AVI-3650], for which the inhibition at 200 µM in assay [1] (setting [8]) came to 71%. Further, in assay [1] (setting [9]), the inhibition at 200 µM was determined as 71%. Further, in assay [2] (crystal soak 10 mM), the “PanDDA run, TFA/DMSO background map: 1-BDC” value is listed as 0.11 and the “PanDDA run, TFA/DMSO background map: Hit” value is on record as “TRUE”. Besides, in assay [2] (setting [10]), the “Number of isomers bound” value came to 2. Further, the Isomers modeled entry in assay [2] (setting [12]) is on record as “R,S”.

In the case of `OCC(CN1CCCCC1)Nc1ncnc2[nH]ccc12` (centres unmarked) [AVI-3677], the inhibition at 200 µM in assay [1] (setting [8]) was less than 10%. In addition, the inhibition at 200 µM in assay [1] (setting [9]) was less than 10%. For the same compound, in assay [2] (crystal soak 10 mM), the “PanDDA run, TFA/DMSO background map: 1-BDC” value is 0.18 and the “PanDDA run, TFA/DMSO background map: Hit” value is listed as “TRUE”. The “Number of isomers bound” value in assay [2] (setting [10]) is recorded as 1.

In the case of `OCC1C2CCC(C2)N1c1ncnc2[nH]ccc12` (centres unmarked) [AVI-3713], in assay [1] (setting [3]), the IC50 is 27 µM. For the same compound, the Ki in assay [1] (setting [4]) was found to be 25 µM. For the same compound, the “Ligand efficiency (binding enery per heavy atom)” value in assay [1] (setting [5]) was found to be 0.35. Further, the “Number of isomers bound” value in assay [2] (setting [10]) came to 1. Also, the Isomers modeled result in assay [2] (setting [12]) is “SSR”.

With `OCC(COCc1ccccc1)Nc1ncnc2[nH]ccc12` (centres unmarked) [AVI-3709], the inhibition at 200 µM in assay [1] (setting [8]) and in assay [1] (setting [9]) was 29% in each case. The “Number of isomers bound” value in assay [2] (setting [10]) came out at 2. Also, in assay [2] (soak concentration 10 mM), the “PanDDA run, TFA/DMSO background map: 1-BDC” value is listed as 0.16. Moreover, the “PanDDA run, TFA/DMSO background map: Hit” value in assay [2] (soak concentration 10 mM) is “TRUE”. The Isomers modeled entry in assay [2] (setting [12]) is recorded as “S,R”.

`OCC(CC(O)c1ccccc1)Nc1ncnc2[nH]ccc12` (centres unmarked) [AVI-3642]: in assay [1] (setting [8]), the inhibition at 200 µM was less than 10%. The inhibition at 200 µM in assay [1] (setting [9]) was less than 10%. For the same compound, in assay [2] (crystal soak 10 mM), the “PanDDA run, TFA/DMSO background map: 1-BDC” value is given as 0.17 and the “PanDDA run, TFA/DMSO background map: Hit” value was “TRUE”. Moreover, in assay [2] (setting [10]), the “Number of isomers bound” value is given as 1.

Take `OCC(Cc1cccs1)Nc1ncnc2[nH]ccc12` (centres unmarked) [AVI-3711]: the inhibition at 200 µM in assay [1] (setting [8]) and in assay [1] (setting [9]) was 63% each time. The “Number of isomers bound” value in assay [2] (setting [10]) is on record as 1. Besides, in assay [2] (soak concentration 10 mM), the “PanDDA run, TFA/DMSO background map: 1-BDC” value is 0.16. Also, in assay [2] (soak concentration 10 mM), the “PanDDA run, TFA/DMSO background map: Hit” value was “TRUE”.

Take `CNc1ccc(NS(=O)(=O)c2cc3cccc(C)c3s2)cn1` [AVI-345]: the inhibition at 200 µM was determined as 18% in assay [1] (Single dose, 200 μM, mean of three technical replicates, read-out: Average % competition) and 18% in assay [1] (setting [9]). In assay [2] (setting [6]), the “Number of isomers bound” value is recorded as 1. In assay [2] (setting [7]), the Isomers modeled entry is on record as “achiral”.

`CO[C@@H]1C[C@H](CO)N(c2ncnc3[nH]ccc23)C1` [AVI-3656]: the inhibition at 200 µM in assay [1] (setting [11]) and in assay [1] (setting [9]) was 41% each time. The “Number of isomers bound” value in assay [2] (setting [10]) came out at 1.

Take `CCC(C)(CO)Nc1ncnc2[nH]ccc12` (centres unmarked) [AVI-3697]: in assay [1] (SARS CoV-2 macrodomain HTRF assay), the “Ligand efficiency (binding enery per heavy atom)” value was 0.39. Further, the IC50 in assay [1] (SARS CoV-2 macrodomain HTRF assay, read-out: IC50) turned out to be 36 µM. The Ki in assay [1] (SARS CoV-2 macrodomain HTRF assay, read-out: Ki) is 34 µM. Further, in assay [2] (setting [10]), the “Number of isomers bound” value was determined as 1.

For the compound `OCC1CC=CCN1c1ncnc2[nH]ccc12` (centres unmarked) [AVI-6002], the IC50 in assay [1] (setting [3]) turned out to be 52 µM. In addition, the Ki in assay [1] (setting [4]) turned out to be 48 µM. Further, the “Ligand efficiency (binding enery per heavy atom)” value in assay [1] (setting [5]) was 0.35. In addition, in assay [2] (setting [6]), the “Number of isomers bound” value worked out at 1.
